Experimental findings from publication PMC6155239, “Targeting PFKFB3 radiosensitizes cancer cells and suppresses homologous recombination” (Nature Communications, 2018) are described below.

Each structure is given as a SMILES string.

The subject of the assay is cell lines representing pancreatic, gastric, and colon cancer. As to the kind of experiment: Cell viability of cancer cell lines. Format: cell-based. To be noted: prolonged incubation (72 h). As for the experimental part: Cell proliferation was assayed by quantifying total cellular protein levels after indicated treatments and incubation times using the Sulphorhodamine B kit, TOX6 (Sigma-Aldrich). MIA PaCa-2, PANC1, SW620, and SW480 cells were plated at a density of 6 × 10^3 cells/well in 96-well plates (CLS3596, Sigma-Aldrich) and allowed to attach overnight. The following day, compounds were diluted in dose–response curve mode, required volume was transferred to assay medium to a maximal DMSO concentration of 0.1%. The diluted compounds were added to the cells with a starting dose–response concentration of 100 µM, all compounds were tested in duplicate plates. After 72 h of incubation with compounds, total protein per well was precipitated using TCA according to the manufacturer's instructions; the sulphorhodamine dye was added to the air-dried wells. After 20 min incubation at room temperature, the dye was discarded and the samples were gently rinsed with 1% HOAc until clear. After air drying, bound dye was solubilized in 10 mM Tris base, and the absorbance of dye was measured at 565 nm. To quantify growth, samples were collected also at t = 0 h, and the resulting absorbance was set to 100%.

In the case of `O=C(OCCO)c1ccc(NS(=O)(=O)c2cccc(-c3cc(F)ccc3O)c2)cc1O` [KAN0438757, 2-Hydroxyethyl-4-{[(5′-fluoro-2′-hydroxybiphenyl-3-yl)sulfonyl]amino}-2-hydroxybenzoate], the “effect on cell viability” value is “significantly reduce cell viability”.
